{"source": "patent US20140017230A1", "about": "“CHRONIC LYMPHOCYTIC LEUKEMIA (CLL) BIOMARKERS” (HOFFMANN-LAROCHE INC., priority 2011, published 2014)", "key": {"[1]": {"test_system": "3′UTR luciferase reporter constructs in HeLa cells", "assay": "3′UTR luciferase reporter assay with miRNA151 3p mimic vs scrambled mimic", "assay_type": "cell-based", "settings": "10 nM mimic, 24 hours post-transfection, normalized to scrambled control", "procedure": "Predicted targets were downloaded from TARGETSCAN 5.1™ (http://www.targetscan.org/) and expression was extracted from the mRNA expression profiling data, irrespective of predicted site conservation. Anti-correlations with miRNAs were determined by comparing miRNA array and mRNA array data and computing Pearson correlation coefficients. […] Subsequently, 3′UTRs that met this threshold were cloned upstream into 3′UTR luciferase reporter constructs (Switchgear Genomics) and 100 ng of each construct was transfected into HeLa cells (ATCC) with 25 ng pRL-CMV, 10 nM miRNA151 3p mimic (Dharmacon) or scrambled mimic in 96-well plates. Luciferase activity was determined 24 hours post-transfection and all data were normalized to renilla luciferase transfection control and scrambled control mimic. Three biological replicates were performed. Statistical significance for a difference between scrambled control and miRNA151 3p mimic was determined by a 2-sided Student's t-test."}, "CLL patients": {"test_system": "CLL patients", "assay": "Phase III trial in CLL patients, R-FC vs FC: progression free survival (PFS) by pretreatment biomarker expression in CD19+ PBMC", "assay_type": "in vivo, human", "settings": "for Median PFS PTK2 Exon 1.0 ST / Median PFS PTK2 U133 plus2.0 / Median PFS PTK2 qRT-PCR / Median PFS miRNA151 DISCOVARRAY / Median PFS miRNA151 qRT-PCR / Median PFS miRNA409 DISCOVARRAY / Median PFS miRNA409 qRT-PCR: CLL patients; for Median PFS PTK2 Exon 1.0 ST / Median PFS PTK2 U133 plus2.0 / Median PFS PTK2 qRT-PCR: PTK2 expression in CD19+ cells", "procedure": "Pretreatment patient samples were analyzed from an international, multicenter, open-label, phase III trial, randomizing CLL patients to receive R-FC (rituximab plus fludarabine/cyclophosphamide) or FC (fludarabine/cyclophosphamide) alone. […] The study protocol was approved by institutional review boards at participating centers and all patients gave written informed consent. Details on trial design and eligibility criteria have been described in Robak et al. J. Clin. Oncol. 28(10):1756-1765 (2010). Patients were selected on the availability of RNA and the written informed consent to participate in molecular genetic analyses of peripheral blood samples.\nPretreatment Peripheral Blood Mononuclear Cell (PBMC) samples positively selected for CD19+ cells were available from n=301 patients. CD19 separation was performed by magnetic bead separation according to the manufacturer's protocol (Miltenyi, Germany).\nPretreatment clinical features i.e demographics, prognostic markers (cytogenetic aberrations like del(17p), del(11q), ZAP70 and CD38 expression, IgVH status), progression free survival (PFS) were compared using the Fisher's exact, Mann-Whitney, or log-rank tests. A p-value of <0.05 was considered statistically significant.\nTwo approaches using a Cox regression model were used to identify genes and miRNA associated with survival. First approach considered the models below.\nFor the different tables and graphs appearing in this document where median PFS was computed, mRNA and miRNA signal intensities were dichotomized using the median value as a cutoff."}, "[2]": {"settings": "miRNA signal < median miRNA signal"}, "[3]": {"settings": "miRNA signal > median miRNA signal"}}}
{"substance": "miRNA151 3p: miRNA151 3p mimic (Dharmacon); miRNA comprising the sequence CUAGACUGAAGCUCCUUGAGG (SEQ ID NO: 1) (synthetic mimic duplex, passenger strand not listed, further chemistry not given here; listed as Homo sapiens)", "values": [{"measurement": "3′UTRs showing a statistically significant reduction in luciferase activity (5 out of the 18)", "setting": "[1]", "result": 28, "unit": "%"}]}
{"substance": "fludarabine/cyclophosphamide [FC]", "values": [{"measurement": "HR for PFS, miRNA151 < median vs > median within treatment arm", "setting": "CLL patients; Array", "result": 0.99}, {"measurement": "HR for PFS, miRNA409 < median vs > median within treatment arm", "setting": "CLL patients; Array", "result": 1.12}, {"measurement": "Median PFS PTK2 Exon 1.0 ST", "setting": "CLL patients; gene < median", "result": 17.9, "unit": "months"}, {"measurement": "Median PFS PTK2 U133 plus2.0", "setting": "CLL patients; gene < median", "result": 17.9, "unit": "months"}, {"measurement": "Median PFS PTK2 qRT-PCR", "setting": "CLL patients; gene < median", "result": 17.9, "unit": "months"}, {"measurement": "Median PFS PTK2 Exon 1.0 ST", "setting": "CLL patients; gene > median", "result": 21.5, "unit": "months"}, {"measurement": "Median PFS PTK2 U133 plus2.0", "setting": "CLL patients; gene > median", "result": 21.5, "unit": "months"}, {"measurement": "Median PFS PTK2 qRT-PCR", "setting": "CLL patients; gene > median", "result": 21.5, "unit": "months"}, {"measurement": "Median PFS miRNA151 DISCOVARRAY", "setting": "CLL patients; [2]", "result": 18, "unit": "months"}, {"measurement": "Median PFS miRNA151 qRT-PCR", "setting": "CLL patients; [2]", "result": 17.9, "unit": "months"}, {"measurement": "Median PFS miRNA409 DISCOVARRAY", "setting": "CLL patients; [2]", "result": 21.6, "unit": "months"}, {"measurement": "Median PFS miRNA409 qRT-PCR", "setting": "CLL patients; [2]", "result": 18.3, "unit": "months"}, {"measurement": "Median PFS miRNA151 DISCOVARRAY", "setting": "CLL patients; [3]", "result": 18.5, "unit": "months"}, {"measurement": "Median PFS miRNA151 qRT-PCR", "setting": "CLL patients; [3]", "result": 20.7, "unit": "months"}, {"measurement": "Median PFS miRNA409 DISCOVARRAY", "setting": "CLL patients; [3]", "result": 18, "unit": "months"}, {"measurement": "Median PFS miRNA409 qRT-PCR", "setting": "CLL patients; [3]", "result": 18.3, "unit": "months"}, {"measurement": "HR for PFS, PTK2 < median vs > median within treatment arm", "setting": "CLL patients; Exon 1.0 ST, CD19+ cells", "result": 0.86}, {"measurement": "HR for PFS, miRNA151 < median vs > median within treatment arm", "setting": "CLL patients; RT-PCR", "result": 0.84}, {"measurement": "HR for PFS, miRNA409 < median vs > median within treatment arm", "setting": "CLL patients; RT-PCR", "result": 1.03}, {"measurement": "HR for PFS, PTK2 < median vs > median within treatment arm", "setting": "CLL patients; U133 + 2, CD19+ cells", "result": 0.86}, {"measurement": "HR for PFS, PTK2 < median vs > median within treatment arm", "setting": "CLL patients; qRT-PCR, CD19+ cells", "result": 0.77}]}
